Experimental data published in patent publication US20200247815A1, “PYRAZOLYL-CONTAINING TRICYCLIC DERIVATIVE, PREPARATION METHOD THEREFOR AND USE THEREOF” (Jiangsu Hansoh Pharmaceutical Group Co., Ltd., priority 2017, published 2020).

Legend:
hERG potassium channel = target: T1, hERG potassium channel (Homo sapiens, UniProt Q12809); test: hERG potassium channel inhibition activity test (Qpatch, CHO-hERG cells); type: cell-based
T1 construct: expressed in transfected cells; host or cells: CHO-hERG cells
Method: 4.1.1 CHO-hERG cells were cultured in a 175 cm2 culture flask. After the cell density reached 60˜80%, the culture solution was removed. The cells were washed with 7 mL of PBS once, and dissociated with 3 mL of Detachin.
4.1.2 After completion of dissociation, the cells were neutralized with 7 mL of culture solution. The solution was centrifuged, and the supernate was removed. The cells were resuspended in 5 mL of culture solution. The cell indensity is ensured as […].
Single cell sealing impedance and formation of whole-cell mode were automatically performed by Qpatch instrument. After obtaining the whole-cell recording mode, the cell was clamped at −80 mV. The cell first underwent pre-voltage of −50 mV for 50 msec, then underwent depolarization stimulation at +40 mV for 5 sec, and then underwent repolarization at −50 mV for 5 sec. and then the voltage returned to −80 mV. The cell underwent the stimulation at the voltage every 15 sec, and the data were recorded for 2 min, then extracellular fluid was administrated, and then the data were recorded for 5 min. Then, the administration process begun. The concentration of the test compound started from the lowest concentration, each test concentration was administrated for 2.5 min. At least three cells were tested for each concentration.
4.4.1 20 mM mother liquor of the compound was diluted with extracellular fluid, 5 uL of 20 mM mother liquor of the compound was added with 2495 uL of extracellular fluid to obtain a concentration of 40 uM (500-fold dilution). The solution was subjected to a 3-fold serial dilution with extracellular fluid containing 0.2% DMSO to obtain a required final concentration.
This concentration of DMSO had no effect on hERG potassium channel.
The experimental data was analyzed by XLFit software.

ERK-1 kinase = target: T2, ERK-1 kinase (Homo sapiens, UniProt P27361); test: Inhibition of ERK-1 kinase activity (LANCE Ultra TR-FRET); type: biochemical; conditions: ERK1 enzyme 0.4 nM, ATP 38.15 μM
T2 construct: purchased Invitrogen PV3311
Method: (§1) The object of this test example is to determine the inhibition effect of the compound on ERK-1 kinase activity. In vitro ERK-1 kinase analysis was carried out by using LANCE Ultra (Perkin Elmer) method. The reaction (reaction system 10 μL) was conducted by adding 2.5 μL of test compound/DMSO (final 4%, V/V, diluted to 10 concentrations (400 nM to 0.02 nM) using a 1:3 dilution scheme), 5 μL of a mixed solution of ERK1 enzyme (Invitrogen, # PV3311, final concentration: 0.4 nM) and substrate Ulight-MBP peptide (Perkin Elmer, # TRF0109-M, final concentration: 0.5 μM) formulated with a kinase buffer (50 mM Hepes pH 7.4, 10 mM MgCl2, 1 mM EGTA, 0.01% Triton X-100, 2 mM DTT) and 2.5 μL of ATP solution (Invitrogen, # PV3227, final concentration: 38.15 μM) formulated with the same buffer successively to a 384-well plate (Perkin Elmer OPTIPLATE™) and mixing well. The reaction mixture was incubated at room temperature for 60 minutes. The reaction was stopped by adding 1× LANCE Detection buffer (PerkinElmer # CR97-100) diluted with ultra-pure water, mM EDTA (Invitrogen #15575038) and 1 nM Eu-anti-p-MBP (PerkinElmer # TRF0201-M) antibody in 10 μL/well. The plate was incubated at room temperature for 60 minutes. Excitation reading was performed on Synergy H1 Hybird Reader, H1MFD (Biotek) with an excitation wavelength of 320 nm. TR-FRET rate was calculated by dividing the acceptor emission signal (signal value at 665 nM) by the Eu donor emission signal (signal value at 615 nM). The inhibition TR-FRET rate of the well treated by the compound was calculated relative to the Max signal (DMSO control) and Min signal (no enzyme added) control wells on the plate {% inhibition rate=100−[(test compound−Min average)]/(Max average−Min average)×100}. The 10 concentrations of the compound after 4-fold dilution of the reaction system were 100 nM to 0.005 nM. Abs_IC50 value was calculated by using GraphPad prism fits percentage inhibition rate and ten-point concentration data in a 4-parameter non-linear logic formula.

[1] = test system: pancreatic cancer tumor cell Mia Paca 2; test: Inhibition of tumor cell proliferation (CellTiter-Glo); type: cell-based; conditions: Homo sapiens, Miapaca-2 cell, 3-7 days
Method: The object of this test example is to determine the inhibition effect of the present compound on tumor cell proliferation activity. The inhibition activity of the compound on tumor cell proliferation was determined by CellTiter-Glo method, and the half inhibitory concentration IC50 of the compound for inhibiting cell proliferation activity was obtained, 50-100 μL of tumor cell suspension was inoculated in a 96-well cell culture plate with a density of 1˜5*10^4 cells/ml. The plate was incubated in an incubator for 16˜24 hours (37° C., 5% CO2). Solutions of test compounds at different concentrations obtained by gradient dilution were added to the cells in the plate. The plate was incubated in an incubator for 3-7 days (37° C., 5% CO2), 50˜100 μL of CellTiter-Glo reagent was added to each well. The plate was shaked for 10 minutes, and left to stand at room temperature for 10 minutes. The value of the chemiluminescence signal was determined by a microplate reader. The inhibition rate was calculated from the value of the chemiluminescence signal. IC50 of the compound was obtained by curve fitting based on the inhibition rate at different concentrations.
The inhibition effect of the present compound on pancreatic cancer tumor cell Mia Paca 2 proliferation activity was determined by the test, and the obtained IC50 value is shown in Table 2.

ERK-2 kinase = target: T3, ERK-2 kinase (Homo sapiens, UniProt P28482); test: Inhibition of ERK-2 kinase activity (LANCE Ultra TR-FRET); type: biochemical; conditions: ERK-2 enzyme 0.08 nM, ATP 38.15 μM
T3 construct: purchased Invitrogen PV3313
Method: as §1, with “ERK-2” for “ERK-1”, “ERK-2” for “ERK1”, “PV3313,” for “PV3311,”, “0.08” for “0.4”, “EGTA” for “EGTA,”, “IX” for “1×”

T2 sequence (P27361 whole entry): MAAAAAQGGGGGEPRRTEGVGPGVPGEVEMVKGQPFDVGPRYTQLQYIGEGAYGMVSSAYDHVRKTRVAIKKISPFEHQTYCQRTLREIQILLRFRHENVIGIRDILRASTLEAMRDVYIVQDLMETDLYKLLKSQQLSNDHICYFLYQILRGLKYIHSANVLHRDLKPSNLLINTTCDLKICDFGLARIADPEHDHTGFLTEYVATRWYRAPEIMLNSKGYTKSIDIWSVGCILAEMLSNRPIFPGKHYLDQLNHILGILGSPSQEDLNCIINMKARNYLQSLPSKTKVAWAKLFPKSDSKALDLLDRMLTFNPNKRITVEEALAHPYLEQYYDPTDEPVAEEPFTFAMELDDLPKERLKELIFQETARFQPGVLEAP
T3 sequence (P28482 whole entry): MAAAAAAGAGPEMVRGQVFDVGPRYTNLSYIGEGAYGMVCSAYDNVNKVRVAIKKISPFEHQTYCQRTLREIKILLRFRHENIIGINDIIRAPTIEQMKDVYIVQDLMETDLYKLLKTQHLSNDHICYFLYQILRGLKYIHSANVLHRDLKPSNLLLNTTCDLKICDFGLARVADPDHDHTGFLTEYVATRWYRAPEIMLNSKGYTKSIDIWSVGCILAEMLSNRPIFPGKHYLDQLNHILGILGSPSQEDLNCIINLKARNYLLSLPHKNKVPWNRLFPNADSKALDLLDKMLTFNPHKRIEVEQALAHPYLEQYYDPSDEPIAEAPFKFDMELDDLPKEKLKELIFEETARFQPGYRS
T1 sequence (Q12809 whole entry): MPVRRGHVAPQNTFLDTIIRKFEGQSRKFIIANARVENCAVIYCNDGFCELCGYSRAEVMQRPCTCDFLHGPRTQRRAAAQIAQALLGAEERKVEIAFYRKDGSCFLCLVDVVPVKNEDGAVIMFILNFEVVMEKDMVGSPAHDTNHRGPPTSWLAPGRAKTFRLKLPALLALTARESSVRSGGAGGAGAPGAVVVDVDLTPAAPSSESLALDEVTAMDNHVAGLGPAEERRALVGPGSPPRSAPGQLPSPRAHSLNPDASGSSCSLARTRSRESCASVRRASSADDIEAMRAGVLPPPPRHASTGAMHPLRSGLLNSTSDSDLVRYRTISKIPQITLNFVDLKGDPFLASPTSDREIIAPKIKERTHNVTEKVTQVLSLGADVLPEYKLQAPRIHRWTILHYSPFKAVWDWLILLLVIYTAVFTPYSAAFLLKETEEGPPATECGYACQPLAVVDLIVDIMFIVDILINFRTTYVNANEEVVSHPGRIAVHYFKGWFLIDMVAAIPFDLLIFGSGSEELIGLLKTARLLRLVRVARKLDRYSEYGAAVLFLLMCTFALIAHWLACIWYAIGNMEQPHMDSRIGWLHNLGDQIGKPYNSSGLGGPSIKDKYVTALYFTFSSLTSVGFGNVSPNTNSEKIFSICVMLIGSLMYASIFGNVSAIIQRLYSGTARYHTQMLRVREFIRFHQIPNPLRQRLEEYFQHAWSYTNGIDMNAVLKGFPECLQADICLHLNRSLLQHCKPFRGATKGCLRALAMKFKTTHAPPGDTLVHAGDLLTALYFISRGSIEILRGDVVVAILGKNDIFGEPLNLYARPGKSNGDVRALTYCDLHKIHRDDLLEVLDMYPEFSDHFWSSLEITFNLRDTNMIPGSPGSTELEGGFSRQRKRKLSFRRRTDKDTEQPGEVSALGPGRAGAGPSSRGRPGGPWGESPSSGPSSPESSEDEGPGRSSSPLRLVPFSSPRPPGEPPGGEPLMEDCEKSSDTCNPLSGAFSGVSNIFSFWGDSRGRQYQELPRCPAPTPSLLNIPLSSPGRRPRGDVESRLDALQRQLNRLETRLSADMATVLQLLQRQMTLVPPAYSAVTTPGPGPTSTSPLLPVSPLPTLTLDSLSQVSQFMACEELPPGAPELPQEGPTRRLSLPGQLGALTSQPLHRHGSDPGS

SMILES	Inhibition effect on cardiac hERG potassium channel (hERG potassium channel)	IC50 (hERG potassium channel; CHO-hERG cells, highest test concentration 40 uM, read-out: hERG (inhibition effect on hERG current))	IC50 (ERK-1 kinase)	IC50 [1]	IC50 (ERK-2 kinase)
O=C(Cc1ccccc1)c1nc2cc3c(-c4ccncc4)n[nH]c3cc2[nH]1 [Example 105, 2-phenyl-1-(3-(pyridin-4-yl)-1,7-dihydroimidazo[4,5-f]indazol-6-yl)ethan-1-one]	no inhibition effect	> 40000 nM			
COc1cccc([C@@H](C)NC(=O)c2nc3cc4c(-c5ccncc5)n[nH]c4cc3[nH]2)c1 [Example 19, (R)—N-(1-(3-methoxyphenyl)ethyl)-3-(pyridin-4-yl)-1,7-dihydroimidazo[4,5-f]indazole-6-carboxamide]			0.35 nM	159 nM	0.2 nM
Cc1cccc([C@@H](CO)NC(=O)c2nc3cc4c(-c5ccncc5)n[nH]c4cc3[nH]2)c1 [Example 30, (S)—N-(2-hydroxy-1-(m-tolyl)ethyl)-(pyridin-4-yl)-1,7-dihydroimidazo[4,5-f]indazole-6-carboxamide]			0.19 nM	61.6 nM	0.12 nM
O=C(N[C@H](CNC1CC1)c1ccccc1)c1nc2cc3c(-c4ccncc4)n[nH]c3cc2[nH]1 [Example 54, (S)—N-(2-(cyclopropylamino)-1-phenylethyl)-3-(pyridin-4-yl)-1,7-dihydroimidazo[4,5-f]indazole-6-carboxamide]			0.52 nM	309 nM	0.32 nM
Cc1cccc([C@@H](C)NC(=O)c2nc3cc4c(-c5ccncc5)n[nH]c4cc3[nH]2)c1 [Example 21, (R)-3-(pyridin-4-yl)-N-(1-(m-tolyl)ethyl)-1,7-dihydroimidazo[4,5-f]indazole-6-carboxamide]			0.3 nM	59.1 nM	0.17 nM
C[C@@H](NC(=O)c1nc2cc3c(-c4ccncc4)n[nH]c3cc2[nH]1)c1cccc(Br)c1 [Example 18, (R)—N-(1-(3-bromophenyl)ethyl)-3-(pyridin-4-yl)-1,7-dihydroimidazo[4,5-f]indazole-6-carboxamide]			0.45 nM	110 nM	0.51 nM
CNC[C@@H](NC(=O)c1nc2cc3c(-c4ccncc4)n[nH]c3cc2[nH]1)c1ccccc1 [Example 50, (S)—N-(2-(methylamino)-1-phenylethyl)-3-(pyridin-4-yl)-1,7-dihydroimidazo[4,5-f]indazole-6-carboxamide]			0.29 nM	55.5 nM	0.17 nM
